# Assay results taken from US9434724B2, “Quinuclidines for modulating alpha 7 activity” (priority 2014, dated 2016).
# Legend:
# [1] = Metabolic stability assay in rat liver microsomes (RLM); assay type: in vitro ADME; conditions: rat, microsomes, 1 μM, pH 7.4
# Protocol: (§1) Protocol 1: Studies were carried out in human and rat liver microsomes (“HLM” and “RLM,” respectively). Human and rat liver microsomes were purchased from BD Gentest. DMSO stocks were prepared for the test compounds. Aliquots of the DMSO solutions were diluted to 0.5 mM by acetonitrile, then further diluted by liver microsomes/buffer to 1.5 μM. 30 μL of 1.5 μM solutions were mixed with 15 μL of 6 mM NADPH, which had been pre-warmed to 37° C., at a final test compound concentration of 1 μM. The plates were kept in a 37° C. water bath for the duration of the experiment. At each time point (0, 5, 15, 30, 45 minutes), 135 μL of acetonitrile was added into corresponding wells. After the final time point was sampled, the plates were shaken at a vibrator (IKA, MTS 2/4) for 10 min (600 rpm/min) and then centrifuged at 5594 g for 15 min (Thermo Multifuge×3R). Aliquots of the supernatant were removed, diluted 1:1 into distilled water, and analyzed by LC-MS/MS. The peak area response ratio to internal standard (PARR) of the compounds at 5, 15, 30, 45 minutes was compared to the PARR at time 0 to determine the percent of test compound remaining at each time point. Half-lives were calculated using Excel software, fitting to a single-phase exponential decay equation.
# (§2) Protocol 2: Studies were carried out in human and rat liver microsomes. Buffer solutions were prepared as follows: Buffer A: 1.0 L of 0.1 M monobasic Potassium Phosphate buffer containing 1.0 mM EDTA; Buffer B: 1.0 L of 0.1 M Dibasic Potassium Phosphate buffer containing 1.0 mM EDTA; Buffer C: 0.1 M Potassium Phosphate buffer, 1.0 mM EDTA, pH 7.4 by titrating 700 mL of buffer B with buffer A while monitoring with a pH meter.
# (§3) Reference compound (Ketanserin) and test compound spiking solutions were prepared as follows: 500 μM spiking solution: add 10 μL of 10 mM DMSO stock solution into 190 μL ACN; 1.5 μM spiking solution in microsomes (0.75 mg/mL): add 1.5 μL of 500 μM spiking solution and 18.75 μL of 20 mg/mL liver microsomes into 479.75 μL of Buffer C.
# (§4) NADPH stock solution (6 mM) was prepared by dissolving NADPH into buffer C.
# (§5) Assay procedure: 30 μL of 1.5 μM spiking solution containing 0.75 mg/mL microsomes solution was dispensed to the wells designated for […]. The plate was pre-incubated at 37° C. for 10 minutes. 15 μL of NADPH stock solution (6 mM) was added to the wells designated as Time 45, and the timer was started. At 30 mM, 15 mM, and 5 mM, 15 μL NADPH stock solution (6 mM) was added to the wells, respectively. At the end of incubation (0 mM), 135 μL of ACN containing IS was added to all the wells. Then 15 μL of NADPH stock solution (6 mM) was added to the wells designated as Time 0. After quenching, the reaction mixtures were centrifuged at 3220 g for […]. Following centrifugation, 50 μL of the supernatant was transferred from each well into a 96-well sample plate containing 50 μL of ultra-pure water (Millipore) for LC/MS analysis. The peak area response (PARR) ratio to internal standard of the compounds at 5, 15, 30, and 45 minutes was compared to the PARR at time 0 to determine the percent of test compound remaining at each time point. Half-lives were calculated using Excel software, fitting to a single-phase exponential decay equation.
# [2] = target: CYP1A2 (Homo sapiens (Human), UniProt P05177); experiment: Cytochrome P450 inhibition in human liver microsomes, CYP1A2; conditions: read-out: 1A2 IC50, Protocol 2
# Sequence of CYP1A2 (P05177 whole entry): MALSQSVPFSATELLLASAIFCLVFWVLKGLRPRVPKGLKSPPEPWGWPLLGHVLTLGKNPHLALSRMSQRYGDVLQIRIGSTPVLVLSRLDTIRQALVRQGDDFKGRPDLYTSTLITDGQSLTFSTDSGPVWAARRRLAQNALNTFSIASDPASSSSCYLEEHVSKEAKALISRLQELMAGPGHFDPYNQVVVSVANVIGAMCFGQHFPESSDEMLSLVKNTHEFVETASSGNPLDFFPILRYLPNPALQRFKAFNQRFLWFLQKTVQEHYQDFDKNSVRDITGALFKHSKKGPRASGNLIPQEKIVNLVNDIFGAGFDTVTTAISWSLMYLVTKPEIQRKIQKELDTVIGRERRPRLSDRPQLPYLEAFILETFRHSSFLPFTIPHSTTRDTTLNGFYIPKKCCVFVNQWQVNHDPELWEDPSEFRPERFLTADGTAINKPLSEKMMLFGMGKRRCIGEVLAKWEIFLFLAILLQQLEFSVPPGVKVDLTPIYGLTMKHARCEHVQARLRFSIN
# [3] = target: rat brain nicotinic receptor (α7 NAChR) (Rattus norvegicus (Rat), UniProt Q05941); assay type: binding
# Sequence of rat brain nicotinic receptor (α7 NAChR) (Q05941 23-502 limits assumed): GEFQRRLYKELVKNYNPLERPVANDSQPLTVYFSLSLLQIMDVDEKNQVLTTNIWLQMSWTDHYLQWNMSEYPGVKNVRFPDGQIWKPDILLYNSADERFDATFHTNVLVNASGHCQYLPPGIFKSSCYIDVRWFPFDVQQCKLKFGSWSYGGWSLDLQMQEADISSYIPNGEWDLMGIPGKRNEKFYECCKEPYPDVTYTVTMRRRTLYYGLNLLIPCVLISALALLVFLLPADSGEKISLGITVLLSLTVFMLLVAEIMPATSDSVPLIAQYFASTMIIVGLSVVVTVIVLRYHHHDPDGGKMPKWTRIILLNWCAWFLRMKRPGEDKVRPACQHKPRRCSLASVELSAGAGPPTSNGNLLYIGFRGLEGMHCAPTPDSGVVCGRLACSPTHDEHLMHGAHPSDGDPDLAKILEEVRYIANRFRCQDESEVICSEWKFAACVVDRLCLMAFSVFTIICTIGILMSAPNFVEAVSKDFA
# [4] = target: CYP3A4 (Homo sapiens (Human), UniProt P08684); experiment: Cytochrome P450 inhibition in human liver microsomes, CYP3A4; conditions: read-out: 3A4 IC50 (Midazolam), substrate midazolam, Protocol 2
# Sequence of CYP3A4 (P08684 whole entry): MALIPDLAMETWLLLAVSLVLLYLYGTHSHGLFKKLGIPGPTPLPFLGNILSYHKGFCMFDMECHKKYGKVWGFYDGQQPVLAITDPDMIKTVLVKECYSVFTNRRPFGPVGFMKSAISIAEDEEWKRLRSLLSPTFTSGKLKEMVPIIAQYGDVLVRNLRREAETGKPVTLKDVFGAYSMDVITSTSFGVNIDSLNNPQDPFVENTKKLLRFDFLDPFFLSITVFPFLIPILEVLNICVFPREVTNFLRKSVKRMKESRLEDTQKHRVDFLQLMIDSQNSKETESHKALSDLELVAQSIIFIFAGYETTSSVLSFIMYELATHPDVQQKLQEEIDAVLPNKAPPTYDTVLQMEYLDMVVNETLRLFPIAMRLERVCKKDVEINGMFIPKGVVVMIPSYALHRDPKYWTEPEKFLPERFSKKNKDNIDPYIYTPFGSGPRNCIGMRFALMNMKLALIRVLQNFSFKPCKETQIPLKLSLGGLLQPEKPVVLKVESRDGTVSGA
# [5] = Metabolic stability assay in human liver microsomes (HLM); assay type: in vitro ADME; conditions: human, microsomes, 1 μM, pH 7.4
# Protocol: as §1, §2, §3, §4, §5
# [6] = target: CYP2C9 (Homo sapiens (Human), UniProt P11712); experiment: Cytochrome P450 inhibition in human liver microsomes, CYP2C9; conditions: read-out: 2C9 IC50, Protocol 2
# Sequence of CYP2C9 (P11712 whole entry): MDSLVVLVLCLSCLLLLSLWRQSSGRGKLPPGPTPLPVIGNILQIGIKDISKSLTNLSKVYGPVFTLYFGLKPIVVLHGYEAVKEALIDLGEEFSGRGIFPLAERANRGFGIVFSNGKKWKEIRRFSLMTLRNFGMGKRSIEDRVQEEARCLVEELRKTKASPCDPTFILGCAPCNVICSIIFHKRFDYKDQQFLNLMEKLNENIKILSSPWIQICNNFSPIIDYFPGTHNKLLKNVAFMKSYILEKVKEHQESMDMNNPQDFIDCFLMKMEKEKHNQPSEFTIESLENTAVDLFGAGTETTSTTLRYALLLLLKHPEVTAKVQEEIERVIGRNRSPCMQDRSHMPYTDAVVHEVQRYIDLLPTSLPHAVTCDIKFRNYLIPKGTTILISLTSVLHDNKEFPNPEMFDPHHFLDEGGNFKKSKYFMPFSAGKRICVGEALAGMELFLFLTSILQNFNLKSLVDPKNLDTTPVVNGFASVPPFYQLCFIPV
# [7] = target: CYP2C19 (Homo sapiens (Human), UniProt P33261); experiment: Cytochrome P450 inhibition in human liver microsomes, CYP2C19; conditions: read-out: 2C19 IC50, Protocol 2
# Sequence of CYP2C19 (P33261 whole entry): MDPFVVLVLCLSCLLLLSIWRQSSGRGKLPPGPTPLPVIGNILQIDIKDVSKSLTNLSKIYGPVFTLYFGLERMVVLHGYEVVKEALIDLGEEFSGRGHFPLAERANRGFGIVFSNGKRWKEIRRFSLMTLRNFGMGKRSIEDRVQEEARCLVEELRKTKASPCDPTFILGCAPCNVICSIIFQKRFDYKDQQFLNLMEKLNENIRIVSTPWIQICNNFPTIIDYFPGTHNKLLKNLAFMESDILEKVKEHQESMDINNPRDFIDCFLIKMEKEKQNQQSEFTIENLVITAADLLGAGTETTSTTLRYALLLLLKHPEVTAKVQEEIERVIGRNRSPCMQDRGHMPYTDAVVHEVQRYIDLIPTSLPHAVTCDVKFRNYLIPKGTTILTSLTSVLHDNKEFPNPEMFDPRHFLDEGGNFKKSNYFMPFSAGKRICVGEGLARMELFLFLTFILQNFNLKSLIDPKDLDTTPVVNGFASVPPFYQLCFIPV
# [8] = Human plasma stability; assay type: in vitro ADME; conditions: human, plasma, pH 7.4; for % Remaining @ 2 h: 1 μM
# Protocol: Protocol 1: Studies were carried out in human plasma. All plasma was obtained from Bioreclamation and collected on sodium heparin. Plasma was adjusted to pH 7.4. A DMSO stock was first prepared for the test compound. An aliquot of the DMSO solution was dosed into 1 mL of plasma, which had been pre-warmed to 37° C., at a final test compound concentration of 1 μM. The vials were kept in a benchtop Thermomixer® for the duration of the experiment. Aliquots (100 μL) were taken at each time point (0, 15, 30, 60, and 120 minutes) and added to 96-well plates which had been pre-filled with 300 μL of acetonitrile. Samples were stored at 4° C. until the end of the experiment. After the final time point was sampled, the plate was mixed and then centrifuged at 3,000 rpm for 10 minutes. Aliquots of the supernatant were removed, diluted 1:1 into distilled water, and analyzed by LC-MS/MS. The peak area response ratio to internal standard (PARR) of the compound at 15, 30, 60 and 120 minutes was compared to the PARR at time 0 to determine the percent of test compound remaining at each time point. Half-lives were calculated using GraphPad software, fitting to a single-phase exponential decay equation.
# Protocol 2: Studies were carried out in plasma. Plasma was prepared under approval of IRB and IACUC on sodium heparin. The pH of plasma was monitored and used within the range of pH 7.4 to pH 8.0. DMSO stocks were prepared for the test compounds. Aliquots of the DMSO solutions were diluted to 0.05 mM by 0.05 mM Sodium phosphate buffer with 0.5% BSA. Then 10 μL of 0.05 mM solutions were dosed into 90 μL of plasma in duplicates (n=2), which had been pre-warmed to 37° C., at a final test compound concentration of 5 μM. The plates were kept in a 37° C. water bath for the duration of the experiment. At each time point (0, 5, 15, 30, 45, 60, and 120 minutes), 400 μL of acetonitrile was added into corresponding wells. After the final time point was sampled, the plates were shaken at the vibrator (IKA, MTS 2/4) for 10 min (600 rpm/min) and then centrifuged at 5594 g for 15 min (Thermo Multifuge×3R). Aliquots of the supernatant were removed, diluted 1:1 into distilled water, and analyzed by LC-MS/MS. The peak area response ratio to internal standard (PARR) of the compounds at 5, 15, 30, 45, 60, and 120 minutes was compared to the PARR at time 0 to determine the percent of test compound remaining at each time point. Half-lives were calculated using Excel software, fitting to a single-phase exponential decay equation.
Structure (SMILES),RLM [1] [mL/min/kg],IC50 [2] [nM],IC50 [3] [nM],Ki [3] [nM],IC50 [4] [nM],HLM [5] [mL/min/kg],IC50 [6] [nM],IC50 [7] [nM],% Remaining @ 2 h [8] [%],half-life at 1 μM [8] [min]
"O=C(OCC12CCN(CC1)CC2)c1c[nH]c2cc(F)ccc12 [Compound 11, quinuclidin-4-ylmethyl 6-fluoro-1H-indole-3-carboxylate]",97.6892,> 10000,261,228,> 10000,<13.608,–,–,–,–
"COc1ccc2[nH]cc(C(=O)OCC34CCN(CC3)CC4)c2c1C [Compound 34, quinuclidin-4-ylmethyl 5-methoxy-4-methyl-1H-indole-3-carboxylate]",125.64,> 10000,23.6,20.4,–,<13.608,> 10000,> 10000,55,> 120
"O=C(OCC12CCN(CC1)CC2)c1c[nH]c2ccccc12 [Compound 1, quinuclidin-4-ylmethyl 1H-indole-3-carboxylate]",105.84,> 10000,31.8,27.6,–,<13.608,> 10000,> 10000,11,38.5
"COc1ccc2c(C(=O)OCC34CCN(CC3)CC4)c[nH]c2c1 [Compound 10, quinuclidin-4-ylmethyl 6-methoxy-1H-indole-3-carboxylate]",36.72,> 10000,–,–,–,<13.608,–,–,–,> 120
"N#Cc1ccc2c(C(=O)OCC34CCN(CC3)CC4)c[nH]c2c1 [Compound 28, quinuclidin-4-ylmethyl 6-cyano-1H-indole-3-carboxylate]",28.4342,> 10000,–,–,–,<13.608,> 10000,> 10000,79,> 120
"COc1cccc2[nH]cc(C(=O)OCC34CCN(CC3)CC4)c12 [Compound 36, quinuclidin-4-ylmethyl 4-methoxy-1H-indole-3-carboxylate]",52.02,> 10000,48.9,42.3,–,<13.608,–,–,2.5,28
"COc1cccc2c(C(=O)OCC34CCN(CC3)CC4)c[nH]c12 [Compound 16, quinuclidin-4-ylmethyl 7-methoxy-1H-indole-3-carboxylate]",82.6672,> 10000,1400,1210,–,<13.608,> 10000,> 10000,–,–
